According to patent publication US8647644B1, “Methods of using capped mesoporous silicates” (Iowa State University Research Foundation, Inc., priority 2006, dated 2014):
Counter-ions that a name gives are not always drawn.

Columns and labels:
[1] = DTT-induced drug/neurotransmitter release study (HPLC); format: physicochemical; details: for release within 24 hours as share of total release seen in 3 days: from CdS-capped MSN after 18.5 mM DTT; for amount released after 3 days of DTT-induced uncapping / encapsulated molecule released after 3 days of DTT-induced uncapping: from CdS-capped MSN, PBS pH 7.4
Protocol: CdS-capped MSN with vancomycin or ATP (10.00 mg) material was dispersed in 1.50 mL of PBS buffer (pH 7.4), followed by repeating wash/sonication/centrifugation cycles for five times to remove physisorbed, uncapped vancomycin or ATP molecules on the exterior surface of the material. The purified MSN/drug composite was redispersed in 3.50 mL of PBS buffer (pH 7.4). Aliquots were taken every 4 hours over a time period of 12 hours from the MSN/water suspension and injected to an analytical HPLC system (Hitachi LC/3DQMS with a reverse phase C18 column (Vydac), 0.4 cm×25 cm) to monitor the leaching of the mesoporous channel encapsulated vancomycin or ATP molecules. After 12 hours, dithiothreitol (DTT, 18.50 mM) was added to the suspension to cleave the disulfide linkage between the CdS nanoparticle and the MSN. The kinetic profiles of the DTT-induced release of vancomycin and ATP were monitored by following two literature-reported HPLC separation conditions. The peaks/areas at 280 and 258 nm were monitored/integrated for the quantitative analysis of amounts of released vancomycin and ATP, respectively. See Farin et al., J. Pharm. Biomed. Anal. 1998, 18:367; and Veciana-Nogues et al., Food Chem. 1997, 59:467.

[2] = Loading of vancomycin and ATP into linker-MSN with CdS capping, HPLC of filtrate; format: physicochemical; details: for loading efficiency: CdS-capped linker-MSN; for amount of mesopore-encapsulated molecule: per 100.0 mg of linker-MSN material, from concentration decrease in filtrate
Protocol: Purified linker-MSN material from sub-part (b) below (100.00 mg) was incubated in a PBS buffer solution (0.60 mL, pH 7.4) of ATP or vancomycin (3.00 μmol in both cases) for 24 hours. Mercaptoacetic acid-functionalized CdS nanoparticles from sub-part (c) below (0.15 mmol) were dissolved in 2.00 mL of PBS buffer with vancomycin or ATP (0.01 mmol in both cases); 1-[3-(dimethylamino)propyl]-3-ethylcarbodiimide hydrochloride (EDC) (57.50 mg, 0.30 mmol) was added to the CdS/drug solution. The reaction mixture was allowed to stir for 24 hours, followed by centrifuging the suspension at 12,000 rpm for 3 minutes. The resulting precipitates (ATP- or vancomycin-loaded, CdS-capped MSNs) were isolated and dried under vacuum.
The water-soluble CdS nanocrystals (average particle diameter of 2.0 nm) with mercaptoacetic acid groups were covalently captured and formed amide bonds by reacting with the mesopore surface-bound 2-(propyldisulfanyl)ethylamine linkers of the MSN/drug composite material in aqueous solutions. The resulting reaction suspensions were centrifuged, and the CdS-capped MSN/drug composite materials along with the unreacted CdS nanoparticles were filtered. The concentrations of the free vancomycin and ATP molecules in the filtrate were then determined by HPLC. The calculated concentration decreases of solution vancomycin and ATP were attributed to the amounts of mesopore-encapsulated vancomycin (2.5 μmol) and ATP (4.7 μmol) per 100.0 mg of linker-MSN material. These numbers correspond to ca. 83.9 and 30.3 mol % loading efficiency, respectively.

[3] = test system: tobacco mesophyll protoplasts; assay: Endocytosis experiments with tobacco mesophyll protoplasts (Example 11); format: cell-based, Nicotiana tabacum; details: 1 mM LYCH, overnight in W5
Protocol: Tobacco protoplasts were mixed with MSN in W5 media (Spangenberg et al., supra) using 10^6 cells for 10 μg of MSN. The mix was incubated overnight in 3 mL of W5 in BD Falcon 6-well flat-bottom plates. To remove non-engulfed MSN (except for FIG. 20A), the mixture were overlaid on K4 medium (Spangenberg et al., supra) and centrifuge at 100×g for 10 minutes at room temperature. The protoplasts at the interphase were collected and evaluated. Isolated live cells experiments images were taken using a 63× oil objective with a Leica TCS/NT laser scanning confocal microscope equipped with Argon 488 nm and Krypton 568 nm lasers plus a double dichroic DD488/568 filter. To detect fluorescence in the green channel, a combination of RSP580 and BP525/25 filters was used under wavelength between 500 and 550 nm. For the red channel, wavelength above 590 nm was selected using a LP590 filter. During scanning, pinhole was maintained at 1 for all images. Images were acquired using TCS software and analyzed using ImageJ (Abramoff et al., Biophotonics Int'l 2004, 11:36). Whole tissue images were taken under either bright field or GFP band pass exciter 460-490 nm with emission filter 510-550 nm using an Olympus SHZ10 stereoscope coupled to a SPOT RT color CCD camera (Diagnostic Instrument Inc.). Images were acquired with SPOT software.

type-1 astrocytes = assay: Intracellular calcium imaging (Fura-2) of astrocyte cultures; details: no MSNs
Protocol: After incubation, tissue was rinsed with EBSS solution and incubated for 5 minutes in trypsin-inhibitor solution (1 mg/mL; Gibco-Invitrogen Co.). After being rinsed, once with EBSS solution and once with culture medium (consisting of α-minimum essential medium (α-MEM; Gibco-Invitrogen Co.) supplemented with 10% heat-inactivated fetal bovine serum (FBS; Gibco-Invitrogen Co.) and 1.00 mL of penicillin-streptomycin solution (Sigma-Aldrich Co.) per 100 mL), the tissue was mechanically dispersed in culture medium by triturating through a fire-polished glass pipet. The cell suspension was transferred to sterile 15-mL centrifuge tubes and spun at 1000 g for 10 minutes. Cell pellets were resuspended in culture medium (α-MEM supplemented with 10% heat-inactivated FBS and 1.00 mL of penicillin-streptomycin solution per 100.00 mL) and plated in culture flasks. […] Culture medium was changed every 2 to 3 days. When mixed cultures reached confluence (9-12 days), the flasks were shaken (260 rpm) for 90 minutes to remove microglia and dividing type I astroglia. After shaking the cells, medium was replaced, and the flasks were incubated for 1 hour to equilibrate with CO2 in the fresh medium. […]
The effect of experimental manipulation on the intracellular calcium concentration ([Ca^2+]i) of cultured cells was evaluated by ratiometric imaging techniques. […]

protoplasts = details: 1-2 mg of DNA per 10^6 cells; cited from earlier work

Molecule | release within 24 hours as share of total release seen in 3 days [1] | amount released after 3 days of DTT-induced uncapping [1] | encapsulated molecule released after 3 days of DTT-induced uncapping [1] | loading efficiency [2] | amount of mesopore-encapsulated molecule [2] | other results
CN[C@H](CC(C)C)C(=O)N[C@H]1C(=O)N[C@@H](CC(N)=O)C(=O)N[C@H]2C(=O)N[C@H]3C(=O)N[C@H](C(=O)N[C@H](C(=O)O)c4cc(O)cc(O)c4-c4cc3ccc4O)[C@H](O)c3ccc(c(Cl)c3)Oc3cc2cc(c3O[C@@H]2O[C@H](CO)[C@@H](O)[C@H](O)[C@H]2O[C@H]2C[C@](C)(N)[C@H](O)[C@H](C)O2)Oc2ccc(cc2Cl)[C@H]1O [vancomycin, Vancomycin hydrochloride] | 85% | 1.6 µmol | 53.8% | ca. 83.9 mol % | 2.5 µmol | 
Lucifer Yellow CH, lithium salts |  |  |  |  |  | protoplasts that underwent endocytosis [3]: 26±7%
OCCS [ME] |  |  |  |  |  | change of intracellular [Ca2+]i (type-1 astrocytes; perfusion 1.0 mM for 5 minutes): no increase in [Ca^2+]i
Nc1ncnc2c1ncn2[C@@H]1O[C@H](COP(=O)([O-])OP(=O)([O-])OP(=O)(O)O)[C@@H](O)[C@H]1O.[Na+].[Na+] [ATP, adenosine triphosphate disodium salt] | 85% | 1.3 µmol | 28.2% | ~30.3 mol % | 4.7 µmol | change of intracellular [Ca2+]i (type-1 astrocytes; 100.0 μM, ME-treated astrocytes): obvious increases in [Ca^2+]i
polyethylene glycol [polyethylene glycol (PEG)] |  |  |  |  |  | transient transformation efficiency (protoplasts): 40-90%
